Reference: the NIST ThermoML archive (doi:10.1016/j.jct.2007.09.011)

What was measured:
[1] = refractive index (Na D-line) (dimensionless); settings: 298.15 K; 101.33 kPa; Liquid
[2] = 101 kPa, Liquid
[3] = refractive index (Na D-line) (dimensionless); xn = mol fraction of the nth substance listed; settings: 298.15 K, 101 kPa, Liquid
[4] = xn = mol fraction of the nth substance listed; settings: 101 kPa, Liquid

CCCCCCCC[n+]1ccn(C)c1.F[B-](F)(F)F [1-methyl-3-octylimidazolium tetrafluoroborate]
Settings	refractive index
[1]	1.4319

[2]
Settings	mass density [kg/m3]
298.15 K	1101.08
308.15 K	1094.13
318.15 K	1087.24

CCCCCCCC[n+]1ccn(C)c1.F[B-](F)(F)F [1-methyl-3-octylimidazolium tetrafluoroborate] + COCCO
[3]
Settings	refractive index
x1 = 0.0106	1.4015
x1 = 0.0477	1.4057
x1 = 0.1083	1.4108
x1 = 0.1495	1.4134
x1 = 0.2062	1.4163
x1 = 0.2827	1.4193
x1 = 0.3204	1.4208
x1 = 0.542	1.4258
x1 = 0.7354	1.4285
x1 = 0.9632	1.4312
x1 = 0.9929	1.4318
x1 = 1	1.4319

mass density [kg/m3], [4]
Settings	298.15 K	308.15 K	318.15 K
x1 = 0.0106	965.72	956.59	947.31
x1 = 0.0477	983.08	974.21	965.56
x1 = 0.1083	1004.86	996.43	987.84
x1 = 0.1495	1016.31	1007.97	999.62
x1 = 0.2062	1029.2	1021.09	1012.99
x1 = 0.2827	1042.98	1035.09	1027.25
x1 = 0.3204	1048.69	1041.05	1033.14
x1 = 0.542	1073.51	1066.16	1058.83
x1 = 0.7354	1087.07	1079.83	1072.61
x1 = 0.9632	1098.9	1092.03	1085.14
x1 = 0.9929	1098.25	1091.42	1084.47
x1 = 1	1101.08	1094.13	1087.24

CCCCCCCC[n+]1ccn(C)c1.F[B-](F)(F)F [1-methyl-3-octylimidazolium tetrafluoroborate] + COCCOCCO
Settings	refractive index
[3], x1 = 1	1.4319

CCCCCCCC[n+]1ccn(C)c1.F[B-](F)(F)F [1-methyl-3-octylimidazolium tetrafluoroborate] + COCCOCCOCCO
Settings	refractive index
[3], x1 = 1	1.4319

[4], x1 = 1
Settings	mass density [kg/m3]
298.15 K	1101.08
308.15 K	1094.13
318.15 K	1087.24

COCCOCCO [2-(2-methoxyethoxy)ethanol]
Settings	refractive index
[1]	1.4242

[2]
Settings	mass density [kg/m3]
298.15 K	1014.87
308.15 K	1005.99

COCCOCCO [2-(2-methoxyethoxy)ethanol] + CCCCCCCC[n+]1ccn(C)c1.F[B-](F)(F)F
[3]
Settings	refractive index
x2 = 0	1.4242
x2 = 0.0088	1.4227
x2 = 0.0165	1.4251
x2 = 0.0745	1.4271
x2 = 0.1611	1.4288
x2 = 0.2555	1.4298
x2 = 0.3459	1.4304
x2 = 0.4603	1.4308
x2 = 0.6468	1.4312
x2 = 0.8198	1.4314
x2 = 0.9227	1.4317
x2 = 0.9912	1.4318

mass density [kg/m3], [4]
Settings	298.15 K	308.15 K	318.15 K
x2 = 0	1014.87	1005.99	–
x2 = 0.0088	1017.27	1008.44	999.55
x2 = 0.0165	1019.28	1010.49	1001.65
x2 = 0.0745	1032.37	1023.86	1015.33
x2 = 0.1611	1046.73	1038.56	1030.36
x2 = 0.2555	1058.05	1050.15	1042.23
x2 = 0.3459	1066.48	1058.76	1051.05
x2 = 0.4603	1075.27	1067.73	1060.25
x2 = 0.6468	1086.77	1079.5	1072.31
x2 = 0.8198	1094.83	1087.77	1080.74
x2 = 0.9227	1098.58	1091.61	1084.65
x2 = 0.9912	1100.8	1093.85	1086.95

COCCOCCOCCO [2-[2-(2-methoxyethoxy)ethoxy]ethanol]
Settings	refractive index
[1]	1.4362

[2]
Settings	mass density [kg/m3]
298.15 K	1044.91
308.15 K	1036.11
318.15 K	1027.28

COCCOCCOCCO [2-[2-(2-methoxyethoxy)ethoxy]ethanol] + CCCCCCCC[n+]1ccn(C)c1.F[B-](F)(F)F
[3]
Settings	refractive index
x2 = 0	1.4362
x2 = 0.0122	1.4364
x2 = 0.0223	1.4366
x2 = 0.0994	1.4372
x2 = 0.2073	1.4373
x2 = 0.3192	1.4369
x2 = 0.42	1.4361
x2 = 0.5301	1.4352
x2 = 0.7153	1.4334
x2 = 0.8449	1.4325
x2 = 0.9395	1.4321
x2 = 0.992	1.432

mass density [kg/m3], [4]
Settings	298.15 K	308.15 K	318.15 K
x2 = 0	1044.91	1036.11	1027.28
x2 = 0.0122	1046.7	1037.94	1029.17
x2 = 0.0223	1048.13	1039.41	1030.69
x2 = 0.0994	1057.7	1049.21	1040.84
x2 = 0.2073	1067.89	1059.71	1051.67
x2 = 0.3192	1075.71	1067.81	1060
x2 = 0.42	1081.2	1073.51	1065.88
x2 = 0.5301	1086.14	1078.64	1071.18
x2 = 0.7153	1093.01	1085.74	1078.58
x2 = 0.8449	1097.08	1089.95	1082.96
x2 = 0.9395	1099.66	1092.63	1085.72
x2 = 0.992	1100.9	1093.94	1087.05

COCCO [2-methoxyethan-1-ol]
Settings	refractive index
[1]	1.4004

[2]
Settings	mass density [kg/m3]
298.15 K	960.05
308.15 K	950.81
318.15 K	941.45

COCCO [2-methoxyethan-1-ol] + CCCCCCCC[n+]1ccn(C)c1.F[B-](F)(F)F
Settings	refractive index
[3], x2 = 0	1.4004

[4], x2 = 0
Settings	mass density [kg/m3]
298.15 K	960.05
308.15 K	950.81
318.15 K	941.45
